ChEMBL document CHEMBL3425432, “Azide-alkyne cycloaddition-mediated cyclization of phosphonopeptides and their evaluation as PTP1B binders and enrichment tools” (Bioorg Med Chem, 2015)
Activity calls are given as the source filed them. The rule behind the calls is not given here. *1 amine or outer side, *2 acyl side, *3 side chain or, on linkers, in order; H or OH if unused. Where a SMILES comes first, the peptide text is derived from it. [ ]: non-standard residue; d: D form. The star is where a group is joined. F2Pmp = N[C@@H](Cc1ccc(C(F)(F)P(=O)(O)O)cc1)C(=O)O; Biotin = O=C1N[C@H]2[C@H](CS[C@H]2CCCCC(=O)*)N1; X1 = [N-]=[N+]=N[C@@H](CCCCN[*:1])C(=O)[*:2]; pY = N[C@@H](Cc1ccc(OP(=O)(O)O)cc1)C(=O)O; Hexanoyl(6-N3) = [N-]=[N+]=NCCCCCC(=O)*; Pra = C#CC[C@H](N)C(=O)O

Tests used:
[1] = molecular target: T1, Tyrosine-protein phosphatase non-receptor type 2 (Homo sapiens) (UniProt P17706); assay: Binding affinity to TCPTP in human MCF7 cells by SDS-PAGE based pull-down assay; format: cell-based
T1 sequence (whole entry): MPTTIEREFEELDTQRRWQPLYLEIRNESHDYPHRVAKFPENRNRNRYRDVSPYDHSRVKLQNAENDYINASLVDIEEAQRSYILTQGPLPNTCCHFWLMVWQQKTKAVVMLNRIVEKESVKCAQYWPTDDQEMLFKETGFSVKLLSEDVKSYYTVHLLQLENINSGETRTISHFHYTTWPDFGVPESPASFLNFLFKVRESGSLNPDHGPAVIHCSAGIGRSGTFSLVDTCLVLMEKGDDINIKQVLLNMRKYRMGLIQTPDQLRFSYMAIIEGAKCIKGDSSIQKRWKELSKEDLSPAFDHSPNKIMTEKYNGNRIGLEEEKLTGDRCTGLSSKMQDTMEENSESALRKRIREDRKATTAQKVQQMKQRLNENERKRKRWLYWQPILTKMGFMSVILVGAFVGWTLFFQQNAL

[2] = Retention time of the compound by HPLC method; format: physicochemical
[3] = molecular target: Proto-oncogene tyrosine-protein kinase Src (Homo sapiens) (UniProt P12931); assay: Binding affinity to c-Src in human MCF7 cells by SDS-PAGE based pull-down assay; format: cell-based
[4] = molecular target: T2, Tyrosine-protein phosphatase non-receptor type 1 (Homo sapiens) (UniProt P18031); assay: Binding affinity to PTP1B in human MCF7 cells by SDS-PAGE based pull-down assay; format: cell-based
T2 sequence (whole entry): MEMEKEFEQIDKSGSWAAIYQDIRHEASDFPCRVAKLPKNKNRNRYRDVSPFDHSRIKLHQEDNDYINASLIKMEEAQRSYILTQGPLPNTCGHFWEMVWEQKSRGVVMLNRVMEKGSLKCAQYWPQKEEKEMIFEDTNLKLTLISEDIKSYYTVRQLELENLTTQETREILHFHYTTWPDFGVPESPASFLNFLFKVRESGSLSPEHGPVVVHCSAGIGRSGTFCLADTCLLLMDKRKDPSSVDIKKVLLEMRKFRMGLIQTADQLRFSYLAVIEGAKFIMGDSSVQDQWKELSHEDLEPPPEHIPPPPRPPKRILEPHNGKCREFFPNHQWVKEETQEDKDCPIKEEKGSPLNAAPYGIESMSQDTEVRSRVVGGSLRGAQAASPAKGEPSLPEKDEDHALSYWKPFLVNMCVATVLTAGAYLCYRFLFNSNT

[5] = molecular target: Receptor-type tyrosine-protein phosphatase alpha (Homo sapiens) (UniProt P18433); assay: Binding affinity to PTPalpha in human MCF7 cells by SDS-PAGE based pull-down assay; format: cell-based
[6] = molecular target: T2, Tyrosine-protein phosphatase non-receptor type 1 (Homo sapiens); assay: Binding affinity to PTP1B in human U2OS cells by SDS-PAGE based pull-down assay; format: cell-based

Sequence of Receptor-type tyrosine-protein phosphatase alpha (Homo sapiens) (P18433 20-802 limits assumed): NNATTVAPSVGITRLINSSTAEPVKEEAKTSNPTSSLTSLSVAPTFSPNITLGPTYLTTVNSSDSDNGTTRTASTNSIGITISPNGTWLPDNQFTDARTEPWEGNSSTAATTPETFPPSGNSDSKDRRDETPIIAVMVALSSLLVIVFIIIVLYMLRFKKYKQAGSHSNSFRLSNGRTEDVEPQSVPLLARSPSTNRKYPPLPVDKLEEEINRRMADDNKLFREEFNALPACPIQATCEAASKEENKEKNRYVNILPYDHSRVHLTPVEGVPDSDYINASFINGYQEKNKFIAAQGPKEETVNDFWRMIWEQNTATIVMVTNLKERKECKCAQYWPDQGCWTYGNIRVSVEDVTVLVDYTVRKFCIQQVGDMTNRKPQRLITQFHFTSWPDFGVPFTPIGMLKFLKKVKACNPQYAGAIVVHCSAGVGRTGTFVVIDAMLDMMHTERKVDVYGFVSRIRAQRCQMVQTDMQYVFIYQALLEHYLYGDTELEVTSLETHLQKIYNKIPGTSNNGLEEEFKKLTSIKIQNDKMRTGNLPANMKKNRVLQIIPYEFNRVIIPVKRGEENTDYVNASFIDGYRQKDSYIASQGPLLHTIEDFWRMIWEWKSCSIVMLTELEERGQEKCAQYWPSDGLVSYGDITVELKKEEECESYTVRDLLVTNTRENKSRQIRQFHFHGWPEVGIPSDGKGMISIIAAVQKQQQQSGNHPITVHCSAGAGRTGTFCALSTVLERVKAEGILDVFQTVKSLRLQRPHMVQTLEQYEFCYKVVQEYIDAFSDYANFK
Sequence of Proto-oncogene tyrosine-protein kinase Src (Homo sapiens) (P12931 2-536 limits assumed): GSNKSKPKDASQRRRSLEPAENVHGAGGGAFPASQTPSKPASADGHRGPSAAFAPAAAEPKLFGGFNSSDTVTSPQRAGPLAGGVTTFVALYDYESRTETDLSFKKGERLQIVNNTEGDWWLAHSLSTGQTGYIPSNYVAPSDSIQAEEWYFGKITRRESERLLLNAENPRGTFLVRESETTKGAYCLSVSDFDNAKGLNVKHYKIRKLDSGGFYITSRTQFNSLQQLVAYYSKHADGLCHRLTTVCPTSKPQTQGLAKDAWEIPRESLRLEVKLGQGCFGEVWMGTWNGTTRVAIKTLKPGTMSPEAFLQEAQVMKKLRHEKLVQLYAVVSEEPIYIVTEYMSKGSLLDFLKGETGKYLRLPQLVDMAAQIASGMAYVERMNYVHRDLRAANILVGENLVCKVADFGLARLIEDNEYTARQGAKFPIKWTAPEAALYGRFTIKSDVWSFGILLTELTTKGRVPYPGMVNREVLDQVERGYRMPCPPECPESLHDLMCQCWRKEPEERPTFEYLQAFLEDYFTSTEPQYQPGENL

Row | Activity [1] | Activity [3] | Activity [4] | Activity [5] | SMILES | Retention_time [2] | Activity [6]
1 | inactive | inactive | inactive | inactive | CC(=O)N[C@@H](CCCCNC(=O)CCCC[C@@H]1SC[C@@H]2NC(=O)N[C@@H]21)C(=O)N[C@@H](CCC(=O)O)C(=O)N1CCC[C@H]1C(=O)N[C@@H](CCC(N)=O)C(=O)N[C@@H](Cc1ccc(OP(=O)(O)O)cc1)C(=O)N[C@@H](CCC(N)=O)C(=O)N1CCC[C@H]1C(=O)NCC(=O)N[C@@H](CCC(=O)O)C(=O)N[C@@H](CC(N)=O)C(=O)N[C@@H](CC(C)C)C(N)=O (Ac-K(Biotin)EPQ[pY]QPGENL-NH2) | 6.6 min | 
2 |  |  |  |  | C#CC[C@H](NC(=O)[C@H](CC(N)=O)NC(=O)[C@H](CCC(=O)O)NC(=O)CNC(=O)[C@@H]1CCCN1C(=O)[C@H](CCC(N)=O)NC(=O)[C@H](Cc1ccc(C(F)(F)P(=O)(O)O)cc1)NC(=O)[C@H](CCC(N)=O)NC(=O)[C@@H]1CCCN1C(=O)[C@H](CCC(=O)O)NC(=O)[C@H](CCCCNC(=O)CCCC[C@@H]1SC[C@@H]2NC(=O)N[C@@H]21)N=[N+]=[N-])C(N)=O (Biotin-[X1]EPQ[F2Pmp]QPGEN[Pra]-NH2) | 8.8 min | inactive
3 |  |  |  |  | CC(=O)N[C@@H](CCCCNC(=O)CCCC[C@@H]1SC[C@@H]2NC(=O)N[C@@H]21)C(=O)N[C@@H](CCC(=O)O)C(=O)N1CCC[C@H]1C(=O)N[C@@H](CCC(N)=O)C(=O)N[C@@H](Cc1ccc(C(F)(F)P(=O)(O)O)cc1)C(=O)N[C@@H](CCC(N)=O)C(=O)N1CCC[C@H]1C(=O)NCC(=O)N[C@@H](CCC(=O)O)C(=O)N[C@@H](CC(N)=O)C(=O)N[C@@H](CC(C)C)C(N)=O (Ac-K(Biotin)EPQ[F2Pmp]QPGENL-NH2) | 9.1 min | Active
4 |  |  |  |  | CC(C)C[C@H](NC(=O)[C@H](CC(N)=O)NC(=O)[C@H](CCC(=O)O)NC(=O)CNC(=O)[C@@H]1CCCN1C(=O)[C@H](CCC(N)=O)NC(=O)[C@H](Cc1ccc(C(F)(F)P(=O)(O)O)cc1)NC(=O)[C@H](CCC(N)=O)NC(=O)[C@@H]1CCCN1C(=O)[C@H](CCC(=O)O)NC(=O)CCCC[C@@H]1SC[C@@H]2NC(=O)N[C@@H]21)C(N)=O (Biotin-EPQ[F2Pmp]QPGENL-NH2) | 8 min | inactive
5 |  |  |  |  | NC(=O)CC[C@@H]1NC(=O)[C@@H]2CCCN2C(=O)[C@H](CCC(=O)O)NC(=O)[C@@H](CCCCNC(=O)CCCC[C@@H]2SC[C@@H]3NC(=O)N[C@@H]32)NC(=O)CCCCCn2cc(nn2)C[C@H](C(N)=O)NC(=O)[C@H](CC(N)=O)NC(=O)[C@H](CCC(=O)O)NC(=O)CNC(=O)[C@@H]2CCCN2C(=O)[C@H](CCC(N)=O)NC(=O)[C@H](Cc2ccc(O)cc2)NC1=O | 8.5 min | inactive
6 | inactive | inactive | inactive | inactive | NC(=O)CC[C@@H]1NC(=O)[C@@H]2CCCN2C(=O)[C@H](CCC(=O)O)NC(=O)[C@@H](CCCCNC(=O)CCCC[C@@H]2SC[C@@H]3NC(=O)N[C@@H]32)n2cc(nn2)C[C@H](C(N)=O)NC(=O)[C@H](CC(N)=O)NC(=O)[C@H](CCC(=O)O)NC(=O)CNC(=O)[C@@H]2CCCN2C(=O)[C@H](CCC(N)=O)NC(=O)[C@H](Cc2ccc(O)cc2)NC1=O | 9.5 min | inactive
7 |  |  |  |  | C#CC[C@H](NC(=O)[C@H](CC(N)=O)NC(=O)[C@H](CCC(=O)O)NC(=O)CNC(=O)[C@@H]1CCCN1C(=O)[C@H](CCC(N)=O)NC(=O)[C@H](Cc1ccc(C(F)(F)P(=O)(O)O)cc1)NC(=O)[C@H](CCC(N)=O)NC(=O)[C@@H]1CCCN1C(=O)[C@H](CCC(=O)O)NC(=O)[C@H](CCCCNC(=O)CCCC[C@@H]1SC[C@@H]2NC(=O)N[C@@H]21)NC(=O)CCCCCN=[N+]=[N-])C(N)=O ({Hexanoyl(6-N3)}-K(Biotin)EPQ[F2Pmp]QPGEN[Pra]-NH2) | 9.5 min | inactive
8 |  |  |  |  | NC(=O)CC[C@@H]1NC(=O)[C@@H]2CCCN2C(=O)[C@H](CCC(=O)O)NC(=O)[C@@H](CCCCNC(=O)CCCC[C@@H]2SC[C@@H]3NC(=O)N[C@@H]32)n2cc(nn2)C[C@H](C(N)=O)NC(=O)[C@H](CC(N)=O)NC(=O)[C@H](CCC(=O)O)NC(=O)CNC(=O)[C@@H]2CCCN2C(=O)[C@H](CCC(N)=O)NC(=O)[C@H](Cc2ccc(C(F)(F)P(=O)(O)O)cc2)NC1=O | 7.1 min | Active

Row | SMILES | Activity [1] | Activity [3] | Activity [4] | Activity [5] | Retention_time [2] | Activity [6]
9 | NC(=O)CC[C@@H]1NC(=O)[C@@H]2CCCN2C(=O)[C@H](CCC(=O)O)NC(=O)[C@@H](CCCCNC(=O)CCCC[C@@H]2SC[C@@H]3NC(=O)N[C@@H]32)NC(=O)CCCCCn2cc(nn2)C[C@H](C(N)=O)NC(=O)[C@H](CC(N)=O)NC(=O)[C@H](CCC(=O)O)NC(=O)CNC(=O)[C@@H]2CCCN2C(=O)[C@H](CCC(N)=O)NC(=O)[C@H](Cc2ccc(C(F)(F)P(=O)(O)O)cc2)NC1=O | Active | inactive | Active | inactive | 7.1 min | Active
